Like-named read-outs stand apart in the source and are kept apart here. Where only a bound is given, the exact number is not on record here.

Common to all, as to test: MTT cell proliferation assay
Type in all cases: cell-based

One test deals with 3T3 cells. Conditions: Mus musculus, NIH3T3, approximately 64-72 hours incubation. In outline: (§1)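 Cytotoxicity was measured by MTT: OD490 of the solubilized formazan after roughly 4 h with MTT reagent, reported as mean percent inhibition relative to the negative control. Test compounds covered eight concentrations between 1 nM and 30 μM, added to 5,000–10,000 cells per well that had attached overnight.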

The subject of the next test is MS751 cells. Conditions: Homo sapiens, MS751, MS751 cells, approximately 64-72 hours incubation. In outline: as §1
A further test has as its system Z138 cells. To be noted: Homo sapiens, Z-138, Z138 cells, approximately 64-72 hours incubation. The gist of the method: as §1
Where [1] appears, read: read-out: MTT Assay IC50, MS-751.
Where [2] appears, read: read-out: MTT Assay IC50, Z-138.
Setting [3] is: read-out: MTT Assay IC50 MS-751.

The term IC50 denotes the concentration needed to halve the response being measured. `Nc1ccc(/C=C/C(=O)NCc2cc3cc(-c4ccc(C(=S)N5CCC(F)(F)CC5)cc4)cc(-c4ccncc4)c3o2)cn1` [Compound 705, (E)-3-(6-aminopyridin-3-yl)-N-((5-(4-(4,4-difluoropiperidine-1-carbonothioyl)phenyl)-7-(pyridin-4-yl)benzofuran-2-yl)methyl)acrylamide]: the IC50 with 3T3 cells (read-out: MTT Assay IC50, 3T3) is 0.1 to 5 µM; in the test on MS751 cells (setting [1]), less than 0.1 µM; in the test with Z138 cells (setting [2]), less than 0.1 µM.
On to `CC1(F)CCN(C(=O)c2ccc(-c3cc(C(F)(F)F)c4oc(CNC(=O)/C=C/c5ccc(N)nc5)cc4c3)cc2)C1` (stereo not drawn) [Compound 608, (E)-3-(6-aminopyridin-3-yl)-N-((5-(4-(3-fluoro-3-methylpyrrolidine-1-carbonyl)phenyl)-7-(trifluoromethyl)benzofuran-2-yl)methyl)acrylamide], for which the results for the IC50 in the test on 3T3 cells (read-out: MTT Assay IC50 3T3), in the test with MS751 cells (setting [3]) and in the test with Z138 cells (read-out: MTT Assay IC50 Z-138) were greater than 10 µM, 0.1 to 5 µM and 0.1 to 5 µM, respectively.
Consider `Nc1ccc(/C=C/C(=O)NCc2cc3cc(-c4ccc(C(=O)N5CCC(F)(F)CC5)cn4)cc(-c4ccc(F)cc4F)c3o2)cn1` [Compound 710, (E)-3-(6-aminopyridin-3-yl)-N-((7-(2,4-difluorophenyl)-5-(5-(4,4-difluoropiperidine-1-carbonyl)pyridin-2-yl)benzofuran-2-yl)methyl)acrylamide], for which the IC50 in the test on 3T3 cells (read-out: MTT Assay IC50, 3T3) was 0.1 to 5 µM; in the test on MS751 cells (setting [1]), less than 0.1 µM; with Z138 cells (setting [2]) it was less than 0.1 µM.
Take `O=C(/C=C/c1cccnn1)NCc1cc2cc(-c3ccc(C(=O)N4CCOCC4)cc3)cc(Cl)c2o1` [Compound 540, (E)-N-((7-chloro-5-(4-(morpholine-4-carbonyl)phenyl)benzofuran-2-yl)methyl)-3-(pyridazin-3-yl)acrylamide]: the IC50 in the test with 3T3 cells (read-out: MTT Assay IC50 3T3), in the test on MS751 cells (setting [3]) and in the test with Z138 cells (read-out: MTT Assay IC50 Z-138) was 5 to 10 µM throughout.
As for `CC(C)(NC(=O)/C=C/c1ccc(N)nc1)c1cc2cc(-c3ccc(C(=O)N4CCOCC4)cc3)cc(Cl)c2o1` [Compound 512, (E)-3-(6-aminopyridin-3-yl)-N-(2-(7-chloro-5-(4-(morpholine-4-carbonyl)phenyl)benzofuran-2-yl)propan-2-yl)acrylamide], the IC50 in the test on 3T3 cells (read-out: MTT Assay IC50 3T3), in the test on MS751 cells (setting [3]) and with Z138 cells (read-out: MTT Assay IC50 Z-138) was greater than 10 µM in each case.
For the compound `Nc1ccc(/C=C/C(=O)NCc2cc3cc(-c4ccc(C(=O)NC5CCC(F)(F)CC5)cn4)cc(C(F)(F)F)c3o2)cn1` [Compound 629, (E)-6-(2-((3-(6-aminopyridin-3-yl)acrylamido)methyl)-7-(trifluoromethyl)benzofuran-5-yl)-N-(4,4-difluorocyclohexyl)nicotinamide], the IC50 was greater than 10 µM with 3T3 cells (read-out: MTT Assay IC50 3T3), 0.1 to 5 µM with MS751 cells (setting [3]) and 0.1 to 5 µM in the test on Z138 cells (read-out: MTT Assay IC50 Z-138).
With `O=C(/C=C/c1cccnc1)NCc1cc2cc(-c3ccc(C(=O)N4CCC(F)(F)CC4)cc3)cc(-c3cccc(F)c3)c2o1` [Compound 727, (E)-N-((5-(4-(4,4-difluoropiperidine-1-carbonyl)phenyl)-7-(3-fluorophenyl)benzofuran-2-yl)methyl)-3-(pyridin-3-yl)acrylamide], the IC50 in the test on 3T3 cells (read-out: MTT Assay IC50, 3T3) is less than 0.1 µM; in the test on MS751 cells (setting [1]), less than 0.1 µM; in the test with Z138 cells (setting [2]) it was less than 0.1 µM.
As for `Nc1ccc(/C=C/C(=O)NCc2cc3cc(-c4ccc(C(=S)N5CCC(F)(F)CC5)cc4)cc(-c4ccc(F)cc4F)c3o2)cn1` [Compound 706, (E)-3-(6-aminopyridin-3-yl)-N-((7-(2,4-difluorophenyl)-5-(4-(4,4-difluoropiperidine-1-carbonothioyl)phenyl)benzofuran-2-yl)methyl)acrylamide], the IC50 is 0.1 to 5 µM in the test with 3T3 cells (read-out: MTT Assay IC50, 3T3); less than 0.1 µM with MS751 cells (setting [1]); less than 0.1 µM in the test with Z138 cells (setting [2]).
In the case of `CN1CCN(C(=O)c2cnc(-c3cc(C(F)(F)F)c4oc(CNC(=O)/C=C/c5ccc(N)nc5)cc4c3)nc2)CC1` [Compound 594, (E)-3-(6-aminopyridin-3-yl)-N-((5-(5-(4-methylpiperazine-1-carbonyl)pyrimidin-2-yl)-7-(trifluoromethyl)benzofuran-2-yl)methyl)acrylamide], the results for the IC50 in the test with 3T3 cells (read-out: MTT Assay IC50 3T3), in the test on MS751 cells (setting [3]) and in the test with Z138 cells (read-out: MTT Assay IC50 Z-138) were greater than 10 µM, 0.1 to 5 µM and 0.1 to 5 µM, respectively.

Values taken from patent publication US12331040B2 (Karyopharm Therapeutics Inc., priority 2013, dated 2025).
